# Test results published in patent US8592468B2, “Bacterial thioredoxin reductase inhibitors and methods for use thereof” (Thioredoxin Systems AB, priority 2006, dated 2013).
# Where two headings read alike, the source gives them in different places.
# Assays:
# E. coli TrxR [1] = biological target: T1, E. coli TrxR (Escherichia coli (strain K12), UniProt P0A9P4); type: biochemical
# Procedure: In FIG. 6A, 10 μM of ebselen (▴) and 10 μM of PZ25 (▪) were used as substrate of 25 nM calf thymus TrxR. In FIG. 6B, 10 μM of PZ25 was used as substrate for 10 nM calf thymus TrxR (◯) and 10 nM of E. coli TrxR (●). Reactions were started by adding enzymes in cuvettes containing 500 μl TE buffer with 100 μM NADPH, of which the consumption were followed by the changes of the absorption at 340 nm against identical blank without enzymes.
# (§1) Reactions were started by adding enzymes to cuvettes containing 500 μl TE buffer with 100 μM NADPH and 16 μM compounds. The NADPH consumption was followed by the changes of the absorption at 340 nm against identical blank without enzymes.
# (§2) The activity of the enzyme was determined at room temperature using an Ultrospec 3000 UV/Visual spectrophotometer (Amersham Biosciences). […] The enzyme-catalysed reactions were followed at 340 nm using the standard calculation of NADPH oxidation to NADP^+ with a molar extinction coefficient of 6200 M^−1 cm^−1 (32, 34). The conditions of the assay of bacterial thioredoxin reductase have been described (32, 34) using either 1 mM DTNB or 160 μM insulin as a substrate. In DTNB coupled assays, 240 μM NADPH and 1 mM DTNB were used in the TE buffer and formation of the TNB was measured at 412 nm, where TNB has an extinction coefficient of 13600 M^−1 cm^−1.
# (§3) Further we examined the effect of ebselen in the reduction of disulphide by E. coli Trx and TrxR using both DTNB and insulin as substrates. […] FIGS. 4A and 4B show the effect of ebselen (4A) and ebselen diselenide (4B) on DTNB reduction by E. coli thioredoxin and thioredoxin reductase. Assays in semi-microcuvettes with 0.5 ml solution contained 0.24 mM NADPH, 1 mM DTNB in 50 mM Tris-Cl/1 mM EDTA, pH 7.5 buffer. (A) In the presence of 2 μM (grey filled points), 5 μM (white filled points) and 10 μM (black filled points) of E. coli Trx and 7.6 nM of E. coli TrxR with ebselen at concentrations of zero (squares), 0.5 μM (triangles), 1 μM (rhombus), and 2 μM (rounds), the increase in A412 was measured against a blank. (B) In the presence of 2 μM (grey filled points), 5 μM (white filled points) and 10 μM (black filled points) of E. coli Trx and 10 nM of E. coli TrxR, with ebselen diselenide at concentrations of zero (squares), 1 μM (triangles) and 2 μM (rounds), the increase in A412 was measured against a blank.
# Mammalian TrxR [2] = biological target: Mammalian TrxR (Bos taurus (Bovine), UniProt O62768); assay: Compounds as substrates of mammalian (calf thymus) TrxR, NADPH consumption; type: biochemical
# Sequence of Mammalian TrxR (Bos taurus (Bovine), UniProt O62768) (O62768 whole entry, looked up): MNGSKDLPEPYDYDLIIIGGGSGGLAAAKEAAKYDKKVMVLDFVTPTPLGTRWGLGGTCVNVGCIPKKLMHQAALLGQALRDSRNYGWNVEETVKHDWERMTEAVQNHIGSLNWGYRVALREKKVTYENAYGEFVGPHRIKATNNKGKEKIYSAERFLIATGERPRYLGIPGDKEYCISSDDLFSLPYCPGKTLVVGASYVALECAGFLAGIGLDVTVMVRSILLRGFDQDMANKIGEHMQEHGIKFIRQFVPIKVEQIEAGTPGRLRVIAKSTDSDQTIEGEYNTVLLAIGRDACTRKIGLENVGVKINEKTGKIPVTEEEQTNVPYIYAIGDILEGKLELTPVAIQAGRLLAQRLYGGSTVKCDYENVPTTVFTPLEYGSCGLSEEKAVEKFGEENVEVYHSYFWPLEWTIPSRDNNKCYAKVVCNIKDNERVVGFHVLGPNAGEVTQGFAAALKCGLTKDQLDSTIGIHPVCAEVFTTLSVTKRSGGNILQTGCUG
# Procedure: FIGS. 6A and 6B show ebselen and its sulphur analogue, PZ25, as substrates of calf-thymus TrxR and PZ25 as substrate of E. coli TrxR. In FIG. 6A, 10 μM of ebselen (▴) and 10 μM of PZ25 (▪) were used as substrate of 25 nM calf thymus TrxR. In FIG. 6B, 10 μM of PZ25 was used as substrate for 10 nM calf thymus TrxR (◯) and 10 nM of E. coli TrxR (●). Reactions were started by adding enzymes in cuvettes containing 500 μl TE buffer with 100 μM NADPH, of which the consumption were followed by the changes of the absorption at 340 nm against identical blank without enzymes.
# as §1, with “Ebselen diselenide (Δ) and PZ25 disulfide (◯) were reduced with 10 nM calf thymus TrxR, while PZ25 disulphide was reduced by 10 nM of E. coli TrxR (●). Reactions” for “Reactions”
# The activity of the enzyme was determined at room temperature using an Ultrospec 3000 UV/Visual spectrophotometer (Amersham Biosciences). Measurements of TrxR activity from both calf thymus and E. coli were performed in a buffer containing 50 mM Tris-Cl, 1 mM EDTA, pH 7.5, generally with 100 μM NADPH and the indicated amount of the drugs. The enzyme-catalysed reactions were followed at 340 nm using the standard calculation of NADPH oxidation to NADP^+ with a molar extinction coefficient of 6200 M^−1 cm^−1 (32, 34). The conditions of the assay of bacterial thioredoxin reductase have been described (32, 34) using either 1 mM DTNB or 160 μM insulin as a substrate. In DTNB coupled assays, 240 μM NADPH and 1 mM DTNB were used in the TE buffer and formation of the TNB was measured at 412 nm, where TNB has an extinction coefficient of 13600 M^−1 cm^−1.
# E. coli TrxR [3] = biological target: T1, E. coli TrxR; assay: Measurement of Ki of ebselen derivates for E. coli TrxR (Dixon plot, DTNB assay); type: biochemical
# Procedure: The detailed inhibition studies using 0.001-4 μM inhibitor were performed in quartz cuvettes and the assay mixture of 500 μL containing E. coli TrxR (6 nM), E. coli Trx (1 or 2 or 4 μM), NADPH (240 μM), and DTNB (1 mM using Zeiss or Ultrospec 3000 Uv-visible spectrophotometer. E. coli TrxR activities were subsequently determined using the standard DTNB assay.
# (§4) All the benzisoselenazol-3(2H)-one and bisbenzisoselenazol-3(2H)-one derivatives were tested as potential E. coli TrxR inhibitors by standard DTNB assay. IC50 values were calculated by following the activity of TrxR reducing DTNB by NADPH at 412 nm. The reactions were started by adding 1 mM DTNB to the mixture of 100 nM TrxR, 2 μM Trx, 240 μM NADPH, and different concentration of inhibitor (1-40 μM). […] The reactions were started by adding 6 nM TrxR at room temperature. Inhibition constants (Ki) for all the compounds were measured from Dixon plot (FIGS. 12A-12F), which plots 1/v versus [I] (v=A412/min, I=Inhibitor concentration, FIGS. 12A-12F). Measured IC50 and Ki values (Table 5) indicate that the compounds EbSe 6-9, 12-16 are potent inhibitors for E. coli TrxR. The presence of covalent bond between selenium and nitrogen is so important for the biological property of ebselen derivatives.
# wild type DHB4 E. coli = assay: Bacterial inhibition by ebselen derivates, MIC; details: for MIC: Escherichia coli, DHB4E.COLI, 4 h, read-out: MIC for wild type DHB4 E. coli; for MIC for wild type DHB4 E. coli: LB, 37° C., 4 hrs, OD600 below 10% of DMSO control; for sensitivity of gshA^− or gor^− strains compared with wt strain: E. coli DHB4 strains
# Procedure: (§5) E. coli DHB4 strains wt, gshA^−, gor^−, oxyR^− were cultured overnight in LB medium. […] OD 600 was detected and DMSO was used as the control. […] The data are the means of two experiments.
# Gor^- DHB4 E. coli = assay: Bacterial inhibition by ebselen derivates, MIC; details: for MIC: Escherichia coli, 4 h, read-out: MIC for Gor^- DHB4 E. coli; for MIC for Gor^- DHB4 E. coli: LB, 37° C., 4 hrs, OD600 below 10% of DMSO control
# Procedure: as §5
# E. coli TrxR [4] = biological target: T1, E. coli TrxR; assay: Measurement of IC50 of ebselen derivates for E. coli TrxR (DTNB assay); type: biochemical
# Procedure: For screening of different classes of ebselen derivatives as inhibitors of E. coli TrxR, the compounds of different concentration (1-40 μM) were incubated for a minute with mixture containing 100 nM E. coli TrxR, 200 μM NADPH and 2 μM of E. coli Trx. Then 1 mM DTNB was added and the enzyme activity was followed by the initial linear increase at A412 for 5 minutes.
# as §4
# gshA^- DHB4 E. coli = assay: Bacterial inhibition by ebselen derivates, MIC; details: LB, 37° C., 4 hrs, OD600 below 10% of DMSO control
# Procedure: as §5
# Staphylococcus aureus = details: compared with PZ51; cited from earlier work
# E. coli TrxR [5] = biological target: T1, E. coli TrxR; assay: Inhibition of E. coli TrxR reduction of Trx, DTNB coupled assay (Lineweaver-Burk); type: biochemical
# Procedure: FIGS. 4A and 4B show the effect of ebselen (FIG. 4A) and ebselen diselenide (FIG. 4B) on DTNB reduction by E. coli thioredoxin and thioredoxin reductase. Assays were contained in 0.50 ml semi-microcuvettes containing 0.24 mM NADPH, 1 mM DTNB in 0.10 M Tris-Cl, pH 8.0, 1 mM EDTA. The increase in A412 was measured against a blank using 10 nM E. coli TrxR in the presence of 2 μM (grey filled points), 5 μM (white filled points), 10 μM (black filled points) E. coli Trx with 0 (squares), 0.5 μM (triangles), 1 μM (rhombus), 2 μM (rounds) of ebselen or ebselen diselenide.
# (A) Ebselen concentrations were 0 μM (▴), 0.5 μM (∀), 1 μM (▪) and 2 μM (Δ). […] (B) Ebselen concentrations were 0 μM (▴), 1 μM (▪) and 2 μM (∀).
# as §2, §3
# H. pylori TrxR = H. pylori TrxR (Helicobacter pylori (strain ATCC 700392 / 26695) (Campylobacter pylori), UniProt P56431); assay: Inhibition of H. pylori TrxR by ebsulfur, insulin reduction assay; type: biochemical; details: 4, 20, and 40 μM
# Sequence of H. pylori TrxR (P56431 whole entry, looked up): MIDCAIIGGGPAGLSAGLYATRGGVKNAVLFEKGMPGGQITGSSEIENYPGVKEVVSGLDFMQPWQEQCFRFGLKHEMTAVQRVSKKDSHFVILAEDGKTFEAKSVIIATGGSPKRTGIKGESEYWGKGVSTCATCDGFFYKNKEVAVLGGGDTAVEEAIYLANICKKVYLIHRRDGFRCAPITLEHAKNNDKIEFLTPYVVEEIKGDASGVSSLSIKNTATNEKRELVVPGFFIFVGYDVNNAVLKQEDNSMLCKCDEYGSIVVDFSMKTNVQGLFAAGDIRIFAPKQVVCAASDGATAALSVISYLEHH
# Procedure: H. pylori TrxR activity was followed by insulin reduction after 4 μM of H. pylori Trx addition, where a decrease in absorbance at 340 nm represents activity.
# H. pylori strains = assay: Inhibition of the growth of H. pylori by PZ-25 (ebsulfur); type: cell-based
# Mammalian TrxR [6] = details: from reference; cited from earlier work
# E. coli Trx-(SH)2 = E. coli Trx-(SH)2 (Escherichia coli (strain K12), UniProt P0AA25); details: fluorescence spectroscopy; cited from earlier work
# [7] = 6 nM TrxR, Trx 1, 2 or 4 μM, Dixon plot, read-out: Ki for E. coli TrxR
# [8] = 100 nM TrxR, 2 μM Trx, 1 mM DTNB, read-out: IC50 for E. coli TrxR
# T1 sequence (P0A9P4 2-321 limits assumed): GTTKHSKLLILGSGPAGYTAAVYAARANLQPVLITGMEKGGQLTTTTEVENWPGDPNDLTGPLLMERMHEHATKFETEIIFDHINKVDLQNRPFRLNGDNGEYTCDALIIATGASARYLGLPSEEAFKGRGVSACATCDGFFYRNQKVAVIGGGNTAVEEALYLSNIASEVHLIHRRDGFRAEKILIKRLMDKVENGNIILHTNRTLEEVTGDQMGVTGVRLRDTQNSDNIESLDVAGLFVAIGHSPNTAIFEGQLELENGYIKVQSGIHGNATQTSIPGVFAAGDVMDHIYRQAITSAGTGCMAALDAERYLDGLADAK
compound,measurement,setting,value
O=C(Nc1ccccc1)c1ccccc1SSc1ccccc1C(=O)Nc1ccccc1 [PZ25 disulphide],Km,E. coli TrxR [1]; E. coli TrxR,27.6 µM
same,kcat,E. coli TrxR [1]; E. coli TrxR,1.67 s⁻¹
same,kcat/KM,E. coli TrxR [1]; E. coli TrxR,60500 M⁻¹ s⁻¹
same,Km,Mammalian TrxR [2],47 µM
same,kcat,Mammalian TrxR [2],25 s⁻¹
same,kcat/KM,Mammalian TrxR [2],533000 M⁻¹ s⁻¹
O=c1c2ccccc2[se]n1CCCn1[se]c2ccccc2c1=O [EbSe 15],Ki,E. coli TrxR [3]; [7],40 nM
Cc1cc(Cl)ccc1-n1[se]c2ccccc2c1=O [EbSe 8],MIC,wild type DHB4 E. coli,47 µM
same,MIC,Gor^- DHB4 E. coli,24 µM
O=c1c2ccccc2[se]n1-c1ccncc1 [EbSe 13],MIC,wild type DHB4 E. coli,45 µM
same,MIC,Gor^- DHB4 E. coli,24 µM
O=c1c2ccccc2[se]n1-c1ccc(Cl)cn1 [EbSe 11],MIC for wild type DHB4 E. coli,wild type DHB4 E. coli,No Inhibition
same,IC50,E. coli TrxR [4]; [8],> 40000 nM
same,MIC for gshA^- DHB4 E. coli,gshA^- DHB4 E. coli,No Inhibition
same,MIC for Gor^- DHB4 E. coli,Gor^- DHB4 E. coli,No Inhibition
O=c1c2ccccc2[se]n1CCn1[se]c2ccccc2c1=O [EbSe 14],sensitivity of gshA^− or gor^− strains compared with wt strain,wild type DHB4 E. coli,same sensitivity
same,MIC,wild type DHB4 E. coli,23 µM
same,MIC,Gor^- DHB4 E. coli,19 µM
O=C(O)c1ccccc1-n1[se]c2ccccc2c1=O [EbSe 9],MIC,wild type DHB4 E. coli,49 µM
same,IC50,E. coli TrxR [4],7500 nM
same,Ki,E. coli TrxR [3],1200 nM
same,MIC,Gor^- DHB4 E. coli,31 µM
O=c1c2ccccc2sn1-c1ccccc1 [PZ25],antibacterial activity of the sulphur analogue,Staphylococcus aureus,lost the antibacterial activity
same,inhibition of E. coli TrxR (in words),E. coli TrxR [5],not inhibitors
same,H. pylori TrxR activity,H. pylori TrxR,inhibited
same,MIC,H. pylori strains; NCTC11637 strain,1.56 µg/mL
same,MIC,H. pylori strains; strain YS-16,0.39 µg/mL
same,kcat,E. coli TrxR [1]; E. coli TrxR,11.7 s⁻¹
same,kcat/KM,E. coli TrxR [1]; E. coli TrxR,4.67e+06 M⁻¹ s⁻¹
same,Km,Mammalian TrxR [2],2.5 µM
same,kcat,Mammalian TrxR [2],23.33 s⁻¹
same,kcat/KM,Mammalian TrxR [2],9.33e+06 M⁻¹ s⁻¹
O=c1c2ccccc2[se]n1-c1ncccc1[N+](=O)[O-] [EbSe 12],MIC for wild type DHB4 E. coli,wild type DHB4 E. coli,No Inhibition
same,IC50,E. coli TrxR [4]; [8],3000 nM
same,Ki,E. coli TrxR [3]; [7],250 nM
same,MIC for gshA^- DHB4 E. coli,gshA^- DHB4 E. coli,No Inhibition
same,MIC for Gor^- DHB4 E. coli,Gor^- DHB4 E. coli,No Inhibition
O=c1c2ccccc2[se]n1CCCCCCn1[se]c2ccccc2c1=O [EbSe 16],sensitivity of gshA^− or gor^− strains compared with wt strain,wild type DHB4 E. coli,same sensitivity
same,MIC,wild type DHB4 E. coli,20 µM
same,MIC,Gor^- DHB4 E. coli,35 µM
O=c1c2ccccc2[se]n1-c1ccc(Cl)cc1 [EbSe 7],MIC,wild type DHB4 E. coli,34 µM
same,MIC,Gor^- DHB4 E. coli,23 µM
O=C(O)c1ccc(-n2[se]c3ccccc3c2=O)cc1 [EbSe 10],IC50,E. coli TrxR [4],15000 nM
O=C(Nc1ccccc1)c1ccccc1[Se][Se]c1ccccc1C(=O)Nc1ccccc1 [ebselen diselenide],Km,Mammalian TrxR [6],40 µM
same,kcat,Mammalian TrxR [6],1.32 s⁻¹
same,kcat/KM,Mammalian TrxR [6],33000 M⁻¹ s⁻¹
same,inhibition of E. coli TrxR (in words),E. coli TrxR [5],strongly inhibited
same,Ki,"E. coli TrxR [5]; Ki (competitive inhibitor of Trx reduction by E. coli TrxR), from Lineweaver-Burk slopes",460 ± 50 nM
same,Ki,"E. coli TrxR [5]; read-out: Ki (competitive inhibitor of Trx reduction by E. coli TrxR), from Lineweaver-Burk slopes",460 nM
same,second-order rate constant of reaction with reduced E. coli Trx,E. coli Trx-(SH)2,1700 M⁻¹ s⁻¹
same,oxidation of NADPH when directly added to E. coli TrxR and NADPH,E. coli TrxR [1],no oxidations of NADPH
